Reference: patent publication US12600757B2, “Peptides inhibiting gamma-c-cytokine activity and methods of use” (Bioniz, LLC, priority 2017, dated 2026)
Values belong to the compound of their own block, whether it stands above or below them. Bridge positions count the residues as written; N and C are the ends. Square brackets hold non-standard residues; d marks the D form. Ends that are not written are not given here. Peptide text beside a SMILES is read from it. R5 = C=CCCC[C@@](C)(N)C(=O)O; S5 = C=CCCC[C@](C)(N)C(=O)O

Key:
[1] = Time-course protease stability in simulated intestinal fluid (RP-HPLC); conditions: simulated intestinal fluid (USP), 37° C., over 60 minutes
Excerpt: To evaluate the gastric stability of the custom peptide derivatives containing one or more intra-peptide hydrocarbon linker elements of the present embodiments a time-course protease stability measurement of unmodified SEQ ID NO: 3 in comparison with a representative custom peptide derivative of SEQ ID NO: 3 containing one hydrocarbon linker element (SEQ ID NO: 39), and another representative custom peptide derivative of SEQ ID NO: 3 containing two hydrocarbon linker elements and certain amino acid positions in the (D) stereochemical configuration (SEQ ID NO: 57) was carried out in simulated intestinal fluid over 60 minutes. […] Simulated intestinal fluid was made according to USP specifications (Test Solutions, United States Pharmacopeia 36). 50 μL of 10 mg/mL peptide was mixed with 450 μL pre-warmed (37° C.) simulated intestinal fluid, and aliquots of the reaction mixture were removed at prescribed time intervals over a time-period of 60 minutes and stopped with 0.1 M HCl. Peptide stability was measured by reversed phase HPLC on a Phenomenex Aeris Peptide column (4.6×250 mm) with settings: 3.6 μm particle size, non-porous; 5.0 μL injection, 0.5 mL/min; mobile phase A: 25% Acetonitrile with 0.1% TFA; mobile phase B: 100% Acetonitrile with 0.1% TFA. The multi-step buffer gradient goes from 100% A to 100% B over 26 minutes. […]

[2] = tested on: T-cells in HAM/TSP culture; experiment: Ex vivo spontaneous T-cell proliferation assay using HAM/TSP patient PBMC; format: cell-based, human; conditions: HAM/TSP peripheral blood ex vivo culture
Method: Proliferation assays were performed on HAM/TSP patient blood samples with and without the addition of BNZ-γ. These assays evaluated the ability of BNZ-γ to block the function of cytokines, such as IL-2 and IL-15, present in the ex vivo HAM/TSP patient blood culture and prevent spontaneous T-cell proliferation in these samples.
In an ex vivo spontaneous T-cell proliferation assay, PBMC from HAM/TSP patient was cultured at 1×10(6) cells per well of a 96 well plate in RPMI-10% FCS. Increasing concentrations of BNZ-γ peptide were added to each well. As a control, an irrelevant peptide was used in similar fashion. The cells were incubated in a 37° C. CO2 incubator for 3, 4, and 6 days. The amount of 1 uCi of ^3H-thymidine was added to the cells. After an additional 6 hour incubation, cells were harvested their proliferation rate was measured. As indicated in FIG. 5A-FIG. 5D, BNZ-γ peptide inhibits the spontaneous proliferation of T-cells in HAM/TSP culture at a concentration of about 1 ug/ml.
Other immunological markers were additionally measured in this assay. The percentage of the viral specific CD8 cells was measured during the ex vivo culture using viral protein tetramers. The population of CD4+CD25+ cells, a marker of T-cell activation, as well as Ki67 staining, a marker of T-cell proliferation, was monitored in a flow cytometry assay.

IL-4 = experiment: NK92 cell proliferation assay (WST-1), IL-4 stimulated; format: cell-based, human; conditions: NK92 cells, peptide 2.5 μM (70% purity), 2 days
Excerpt: (§1) For each of the six γc-cytokines, indicator cell lines: NK92, a human NK cell line NK92 available by American Type Culture Collection (ATCC) (catalog #CRL-2407), CTLL-2, a murine CD8 T cells line available from ATCC, and PT-18, a murine mast cell line and its subclone PT-18β, is transfected with human IL-2Rβ gene to make the cells responsive to IL-2 and IL-15 (Tagaya et al., 1996, EMBO J. 15:4928-39), and is used to quantitatively determine the γc-cytokine's growth-promoting activity (See Current protocols in Immunology from Wiley and Sons for a methodological reference).
(§2) Once the appropriate doses of the cytokine that yield the 50-70% and 95% maximum response from the indicator cell line is determined, various concentrations (ranging from 1 μM to 10 μM) of the purified or synthesized custom derivative peptide is added to each well containing the cytokine and indicator cells. The reduction in light absorbance at 450 nm is used as an indicator of inhibition of cytokine-stimulated cellular proliferation.
(§3) The human NK cell line NK92 was used to determine the γc-cytokine inhibitory specificity of SEQ ID NO: 3. In this assay the cells were cultured with 0.5 nM of recombinant IL-2 in RPMI 10% fetal Calf Serum. […] The growth-responses of the cells were determined 2 days after the introduction of SEQ ID NO: 3 and the cytokine using the WST-1 assay. […]

[3] = tested on: IL-2 mediated phosphorylation of STAT-5; experiment: IL-2 mediated phosphorylation of STAT5 in CTLL-2 cells (immunoblot); format: cell-based, murine; conditions: anti-phospho-STAT5 immunoblot
Excerpt: (§4) Similar to the IL-15 induced tyrosine phosphorylation of STAT5 via Jak3, it is well known in the art that Jak-STAT signaling mediated via IL-21 receptor binding preferentially induces Jak-mediated tyrosine phosphorylation of STAT3 (Habib et al. 2003 J Allergy Clin Immunol. 112:1033-45). In accordance with these published data, the ability of SEQ ID NO: 3 to inhibit the tyrosine phosphorylation of the STAT5 molecule by IL-2 or IL-15 in CTLL-2 cells, and the ability of SEQ ID NO: 3 to inhibit the tyrosine phosphorylation of the STAT3 molecule by IL-21 in NK92 cells was examined (results shown in FIG. 4B).
(§5) CTLL-2 cells were stimulated by IL-2 or IL-15 in the presence or absence of SEQ ID NO: 3. CTLL-2 cells were also stimulated by IL-2 or IL-15 in the presence of anti-IL-2 antibody (R & D Systems, Catalog #MAB202, Minneapolis, MN) or anti-IL-15 antibody (R & D Systems, Catalog #MAB247, Minneapolis, MN) as positive controls. NK92 cells were stimulated by IL-21 in the presence or absence of SEQ ID NO: 3. NK92 cells were also stimulated by IL-21 in the presence of anti-IL-21 antibody (Mabtech, Catalog #3540-1-250, Cincinnati, OH) as a positive control. Cytoplasmic proteins were extracted from the cells according to a conventional method as described in Tagaya et al. 1996 EMBO J. 15:4928-39. […]

[4] = tested on: IL-15 mediated phosphorylation of STAT-5; experiment: IL-15 mediated phosphorylation of STAT5 in CTLL-2 cells (immunoblot); format: cell-based, murine; conditions: anti-phospho-STAT5 immunoblot
Excerpt: as §4, §5

[5] = tested on: IL-21 mediated phosphorylation of STAT-3; experiment: IL-21 mediated phosphorylation of STAT3 in NK92 cells (immunoblot); format: cell-based, human; conditions: anti-phospho-STAT3 immunoblot
Excerpt: as §4, §5

IL-9 = experiment: NK92 cell proliferation assay (WST-1), IL-9 stimulated; format: cell-based, human; conditions: NK92 cells, peptide 2.5 μM (70% purity), 2 days
Excerpt: as §1, §2, §3

IL-2 = experiment: NK92 cell proliferation assay (WST-1), IL-2 stimulated; format: cell-based, human; conditions: NK92 cells, 2 days
Excerpt: as §1, §2
as §3, with “for a dose response” for “to determine the γc-cytokine inhibitory specificity”, “3 against IL-2, IL-15, and IL-21. Cells” for “3. In this assay the cells”

IL-21 = experiment: NK92 cell proliferation assay (WST-1), IL-21 stimulated; format: cell-based, human; conditions: NK92 cells, 2 days
Excerpt: as §1, §2
as §3, with “for a dose response” for “to determine the γc-cytokine inhibitory specificity”, “3 against IL-2, IL-15, and IL-21. Cells” for “3. In this assay the cells”

IL-15 = experiment: NK92 cell proliferation assay (WST-1), IL-15 stimulated; format: cell-based, human; conditions: NK92 cells, 2 days
Excerpt: as §1, §2
as §3, with “for a dose response” for “to determine the γc-cytokine inhibitory specificity”, “3 against IL-2, IL-15, and IL-21. Cells” for “3. In this assay the cells”

[6] = tested on: IL-12 induction of IFNγ gene transcription; experiment: IL-12 induced IFNγ gene transcription in NK92 cells (qPCR); format: cell-based; conditions: peptide 10 minutes pre-treatment, human IL-12 1 ng/mL for 2 hours
Excerpt: (§6) The cytokine interferon gamma (IFNγ) represents a useful marker for inflammation in multiple human immune-inflammatory disease states. Transcription of the IFNγ gene is inducible by IL-15, IL-21, the non-γc cytokine IL-12, and other select cytokines. The ability to block cytokine-induced IFNγ transcription therefore represents another useful approach to determine the biological activity of custom peptide derivatives.
(§7) NK92 cells were brought to a quiescent state by PBS washing and culturing in the absence of cytokine for 48 hours. Cells were treated with SEQ ID NO: […] for 10 minutes, and then stimulated with human IL-15, IL-21, or IL-12 at 1 ng/mL for 2 hours. A cytokine only treatment group, and another treatment group where the NK92 cells were left untreated by peptide, and not stimulated by cytokine were also included as control conditions. Following incubation with peptide and cytokine, cells were harvested, RNA was isolated for cDNA generation and used as template for qPCR analysis to quantify IFNγ transcripts.

[7] = tested on: IL-15 induction of IFNγ gene transcription; experiment: IL-15 induced IFNγ gene transcription in NK92 cells (qPCR); format: cell-based; conditions: peptide 10 minutes pre-treatment, human IL-15 1 ng/mL for 2 hours
Excerpt: as §6, §7

[8] = tested on: IL-21 induction of IFNγ gene transcription; experiment: IL-21 induced IFNγ gene transcription in NK92 cells (qPCR); format: cell-based; conditions: peptide 10 minutes pre-treatment, human IL-21 1 ng/mL for 2 hours
Excerpt: as §6, §7

[9] = peptide 0-0.1 μM (>99% purity), cytokine at 70% proliferation level

percentage of undigested peptide present in simulated intestinal fluid, compared to the unmodified peptide [1]: greatly enhanced
Compound: CC[C@H](C)[C@H](NC(=O)[C@]1(C)CCCC=CCCC[C@](C)(NC(=O)[C@@H](Cc2c[nH]cn2)NC(=O)[C@@]2(C)CCCC=CCCC[C@](C)(NC(=O)[C@@H](Cc3ccccc3)NC(=O)[C@@H](CCC(=O)O)NC(=O)[C@@H](CCCCN)NC(=O)[C@H]3CCCN3C(=O)[C@@H](CCCNC(=N)N)NC(=O)[C@@H](CCCNC(=N)N)NC(=O)[C@@H](CCCNC(=N)N)NC(=O)[C@H](N)CCCNC(=N)N)C(=O)N[C@@H](CCC(=O)O)C(=O)N[C@@H](CCCNC(=N)N)C(=O)N[C@@H](Cc3ccccc3)C(=O)N2)C(=O)N[C@@H](C(C)C)C(=O)N[C@@H](CCC(N)=O)C(=O)N[C@@H](CC(C)C)C(=O)N1)C(=O)N[C@H](Cc1c[nH]cn1)C(=O)N[C@H](CCC(N)=O)C(=O)N[C@H](CO)C(=O)N[C@H](CC(C)C)C(=O)N[C@H](CO)C(=O)O [SEQ ID NO: 57, {dR}-{dR}-{dR}-{dR}-{dP}-{dK}-{dE}-{dF}-{S5Ala1}-E-R-F-{R5Ala1}-{dH}-{S5Ala2}-V-Q-L-{S5Ala2}-I-{dH}-{dQ}-{dS}-{dL}-{dS}] (H-[dR][dR][dR][dR][dP][dK][dE][dF][S5]ERF[R5][dH][S5]VQL[S5]I[dH][dQ][dS][dL][dS]-OH; staple 9-13, 15-19; N-terminus and C-terminus assumed)

Compound: IKEFLQRFIHIVQSIINTS [BNZ-γ, I-K-E-F-L-Q-R-F-I-H-I-V-Q-S-I-I-N-T-S]
percent of live cells by Guava staining [2]: not impacted

Compound: PKEFLERFVHLVQMFIHQSLS (PKEFLERFVHLVQMFIHQSLS) [SEQ ID NO: 3, 21-mer composite peptide of γc-cytokine D-helix regions]
cellular proliferation stimulated by IL-4 (inhibitory specificity) (IL-4): not affected
IL-2 mediated phosphorylation of STAT-5 [3]: but not IL-2 mediated phosphorylation of STAT-5
IL-15 mediated phosphorylation of STAT-5 [4]: inhibited
IL-21 mediated phosphorylation of STAT-3 [5]: inhibited
cellular proliferation stimulated by IL-9 (inhibitory specificity) (IL-9): not affected
cellular proliferation stimulated by IL-2 (dose response) (IL-2; peptide 0-10 μM (>99% purity), cytokine at 70% proliferation level): not affected
cellular proliferation stimulated by IL-2 (inhibitory specificity) (IL-2; peptide 2.5 μM (70% purity)): not affected
activity of IL-21 (dose response) (IL-21; [9]): potently inhibited
activity of IL-21 (inhibitory specificity) (IL-21; peptide 2.5 μM (70% purity)): significantly reduced
activity of IL-15 (dose response) (IL-15; [9]): potently inhibited
activity of IL-15 (inhibitory specificity) (IL-15; peptide 2.5 μM (70% purity)): significantly reduced

Compound: {S5Ala1}-P-K-E-{S5Ala1}-L-E-R-F-V-H-L-V-Q-K-{S5Ala2}-I-H-Q-{S5Ala2}-L-S [SEQ ID NO: 83]
non-γc cytokine IL-12 induction of IFNγ gene transcription [6]: did not block
IL-15 induction of IFNγ gene transcription [7]: inhibition
IL-21 induction of IFNγ gene transcription [8]: inhibition
